According to patent publication US11833149B2, “Pulse dosing regimen and methods of treatment” (OSI Pharmaceuticals, LLC, priority 2016, dated 2023):
“Also recorded” adds a separate entry of the source.

How the values were obtained:
[1] = pH of approximately 2; over the pH range of 1.4 to 9.6; cited from earlier work
[2] = Phase 1 study: pharmacokinetic analysis of plasma (LC-MS/MS); assay type: in vivo, patients
Method: Pharmacokinetic analysis: Whole-blood samples for plasma were collected at prescheduled time points for pharmacokinetic (PK) analysis. Plasma levels of erlotinib were determined using a validated liquid chromatography-tandem mass spectrometry assay. […] MS detection was using an AB SCIEX API 4000 triple quadrupole mass spectrometer operating in positive ion electrospray ionization (ESI) mode. Standard PK parameters were calculated using a noncompartmental method (WiNNonlin, Pharsight).

[3] = cited from earlier work
[4] = system: EGFR-mutant lung cancers with CNS involvement; details: median dose erlotinib 1500 mg once weekly (Grommes et al.); cited from earlier work
EGFR-mutant lung cancers = experiment: Phase 1 study of pulse-continuous erlotinib: response (RECIST 1.1) and progression-free survival; assay type: in vivo, patients
Method: (§1) The study was registered at clinicaltrials.gov (NCT01967095). […] All patients provided written informed consent.
Prior cytotoxic chemotherapy was allowed. Patients were required to have measurable disease per RECIST (Response Evaluation Criteria in Solid Tumours), version 1.1). […] Patients with clinically stable brain metastases, either treated or untreated, were eligible.
Response assessments: Response to therapy was assessed by interval imaging every 6 weeks with a CT scan with response evaluated per RECIST 1.1. After six cycles on treatment, patients could reduce the radiographic assessments to every 4 cycles (12 weeks).
Statistical Analysis: Descriptive statistics were used to summarize the clinical characteristics of the patients. Progression-free survival was estimated using the Kaplan-Meier method, and defined as the time from start of study therapy until progression or death. […] Response rates were calculated using binomial proportions and exact 95% CIs. All statistical analyses were performed using R 3.2.2 (R Development Core Team) including the “survival” and “Hmisc” packages.

[5] = Phase 1 dose-escalation study of pulse-continuous erlotinib: DLT, MTD, adverse events
Method: (§2) Toxicity assessments: Patients were assessed five times during cycle 1 (28 days) and then every 21 days thereafter. Patient history, physical examination, complete blood count and serum chemistries were performed at each visit. Toxicity was graded according to the National Cancer Institute Common Terminology Criteria for Adverse Events (NCI CTCAE), version 4.

[6] = in vivo
Method: as §2

brain metastases = experiment: Phase 1 study of pulse-continuous erlotinib: central nervous system activity; assay type: in vivo, patients
From the text: as §1
Central nervous system activity: A brain MRI was required at enrollment.

[7] = cited from earlier work; remark: listed apart in the source
[8] = erlotinib 1500 mg once weekly (Clarke et al.)

C#Cc1cccc(Nc2ncnc3cc(OCCOC)c(OCCOC)cc23)c1.Cl [Erlotinib hydrochloride]
maximal aqueous solubility [1]: approximately 0.4 mg/mL

C#Cc1cccc(Nc2ncnc3cc(OCCOC)c(OCCO)cc23)c1 [OSI-420]
dose-dependence of metabolite with increasing pulse doses of erlotinib ([2]; in vivo): no significant dose-dependence

C#Cc1cccc(Nc2ncnc3cc(OCCOC)c(OCCOC)cc23)c1 [erlotinib, N-(3-ethynylphenyl)-6,7-bis(2-methoxyethoxy)-4-quinazolinamine]
cerebrospinal fluid (CSF) concentration as % of plasma concentration ([3]; Togashi et al.): 3-5% | concurrent CSF concentration [3, 8]: 120 nM | peak plasma concentration [3, 8]: 11,300 nM | change of peak plasma concentration with increasing pulse doses ([2]; 600 mg to 1,350 mg, Cycle 1): no significant increases | range of peak plasma concentration ([2]; 4 hr post-administration, Week 2): 2,600-9355 ng/mL | median peak plasma concentration ([2]; 4 hr post-administration, after the second day of weekly pulse dose at Week 2): 5,393 ng/mL | median plasma trough concentration ([2]; before the pulse dosing at the start of week 4): 435 ng/mL | median plasma trough concentration ([2]; start of week 4): 1.1 µM | range of plasma trough concentration ([2]; start of week 4): 29 to 1655 ng/mL | patients with partial response in the CNS [4]: Six of nine | patients with complete response (EGFR-mutant lung cancers; 34 patients): one | patients with confirmed partial responses (EGFR-mutant lung cancers; 34 patients): Twenty-four | median progression-free survival (EGFR-mutant lung cancers; 95% CI 5.8-15.4 months): 9.9 months | overall response rate (EGFR-mutant lung cancers; intent to treat, 34 patients, 95% CI 60-84%): 74% | change in the sum of target lesions (EGFR-mutant lung cancers; patients with radiographic assessment): All patients had a decrease | deaths on study ([5]; all 34 patients): no deaths | grade four or five toxicities ([5]; all 34 patients): No grade four or five toxicities | MTD (pulse dose) ([5]; pulse on days 1 and 2 with 50 mg erlotinib on days 3 to 7): 1200 mg | ALT elevated Grade 1 (% of patients) ([6]; human): (18%) | ALT elevated Grade 1 (patients) ([6]; human): 6 | ALT elevated Grade 2 (% of patients) ([6]; human): (3%) | ALT elevated Grade 2 (patients) ([6]; human): 1 | ALT elevated Grade 3 (% of patients) ([6]; human): (3%) | ALT elevated Grade 3 (patients) ([6]; human): 1 | ALT elevated Grade 4 (patients) ([6]; human): 0 | ALT elevated Total (any grade) (% of patients) ([6]; human): (24%) | ALT elevated Total (any grade) (patients) ([6]; human): 8 | AST increased Grade 1 (% of patients) ([6]; human): (15%) | AST increased Grade 1 (patients) ([6]; human): 5 | AST increased Grade 2 (% of patients) ([6]; human): (3%) | AST increased Grade 2 (patients) ([6]; human): 1 | AST increased Grade 3 (patients) ([6]; human): 0 | AST increased Grade 4 (patients) ([6]; human): 0 | AST increased Total (any grade) (% of patients) ([6]; human): (18%) | AST increased Total (any grade) (patients) ([6]; human): 6 | Alopecia Grade 1 (% of patients) ([6]; human): (21%) | Alopecia Grade 1 (patients) ([6]; human): 7 | Alopecia Grade 2 (patients) ([6]; human): 0 | Alopecia Grade 3 (patients) ([6]; human): 0 | Alopecia Grade 4 (patients) ([6]; human): 0 | Alopecia Total (any grade) (% of patients) ([6]; human): (21%) | Alopecia Total (any grade) (patients) ([6]; human): 7 | Anemia Grade 1 (% of patients) ([6]; human): (6%) | Anemia Grade 1 (patients) ([6]; human): 2 | Anemia Grade 2 (% of patients) ([6]; human): (3%) | Anemia Grade 2 (patients) ([6]; human): 1 | Anemia Grade 3 (% of patients) ([6]; human): (3%) | Anemia Grade 3 (patients) ([6]; human): 1 | Anemia Grade 4 (patients) ([6]; human): 0 | Anemia Total (any grade) (% of patients) ([6]; human): (12%) | Anemia Total (any grade) (patients) ([6]; human): 4 | Anorexia Grade 1 (% of patients) ([6]; human): (9%) | Anorexia Grade 1 (patients) ([6]; human): 3 | Anorexia Grade 2 (% of patients) ([6]; human): (6%) | Anorexia Grade 2 (patients) ([6]; human): 2 | Anorexia Grade 3 (patients) ([6]; human): 0 | Anorexia Grade 4 (patients) ([6]; human): 0 | Anorexia Total (any grade) (% of patients) ([6]; human): (15%) | Anorexia Total (any grade) (patients) ([6]; human): 5 | Bilirubin increased Grade 1 (% of patients) ([6]; human): (12%) | Bilirubin increased Grade 1 (patients) ([6]; human): 4 | Bilirubin increased Grade 2 (% of patients) ([6]; human): (15%) | Bilirubin increased Grade 2 (patients) ([6]; human): 5 | Bilirubin increased Grade 3 (% of patients) ([6]; human): (6%) | Bilirubin increased Grade 3 (patients) ([6]; human): 2 | Bilirubin increased Grade 4 (patients) ([6]; human): 0 | Bilirubin increased Total (any grade) (% of patients) ([6]; human): (32%) | Bilirubin increased Total (any grade) (patients) ([6]; human): 11 | Diarrhea Grade 1 (% of patients) ([6]; human): (71%) | Diarrhea Grade 1 (patients) ([6]; human): 24 | Diarrhea Grade 2 (% of patients) ([6]; human): (3%) | Diarrhea Grade 2 (patients) ([6]; human): 1 | Diarrhea Grade 3 (% of patients) ([6]; human): (12%) | Diarrhea Grade 3 (patients) ([6]; human): 4 | Diarrhea Grade 4 (patients) ([6]; human): 0 | Diarrhea Total (any grade) (% of patients) ([6]; human): (85%) | Diarrhea Total (any grade) (patients) ([6]; human): 29 | Dry skin Grade 1 (% of patients) ([6]; human): (29%) | Dry skin Grade 1 (patients) ([6]; human): 10 | Dry skin Grade 2 (patients) ([6]; human): 0 | Dry skin Grade 3 (patients) ([6]; human): 0 | Dry skin Grade 4 (patients) ([6]; human): 0 | Dry skin Total (any grade) (% of patients) ([6]; human): (29%) | Dry skin Total (any grade) (patients) ([6]; human): 10 | Fatigue Grade 1 (% of patients) ([6]; human): (24%) | Fatigue Grade 1 (patients) ([6]; human): 8 | Fatigue Grade 2 (% of patients) ([6]; human): (12%) | Fatigue Grade 2 (patients) ([6]; human): 4 | Fatigue Grade 3 (patients) ([6]; human): 0 | Fatigue Grade 4 (patients) ([6]; human): 0 | Fatigue Total (any grade) (% of patients) ([6]; human): (35%) | Fatigue Total (any grade) (patients) ([6]; human): 12 | Mucositis Grade 1 (% of patients) ([6]; human): (24%) | Mucositis Grade 1 (patients) ([6]; human): 8 | Mucositis Grade 2 (% of patients) ([6]; human): (9%) | Mucositis Grade 2 (patients) ([6]; human): 3 | Mucositis Grade 3 (% of patients) ([6]; human): (3%) | Mucositis Grade 3 (patients) ([6]; human): 1 | Mucositis Grade 4 (patients) ([6]; human): 0 | Mucositis Total (any grade) (% of patients) ([6]; human): (35%) | Mucositis Total (any grade) (patients) ([6]; human): 12 | Nausea Grade 1 (% of patients) ([6]; human): (29%) | Nausea Grade 1 (patients) ([6]; human): 10 | Nausea Grade 2 (% of patients) ([6]; human): (9%) | Nausea Grade 2 (patients) ([6]; human): 3 | Nausea Grade 3 (% of patients) ([6]; human): (6%) | Nausea Grade 3 (patients) ([6]; human): 2 | Nausea Grade 4 (patients) ([6]; human): 0 | Nausea Total (any grade) (% of patients) ([6]; human): (44%) | Nausea Total (any grade) (patients) ([6]; human): 15 | Paronychia Grade 1 (% of patients) ([6]; human): (12%) | Paronychia Grade 1 (patients) ([6]; human): 4 | Paronychia Grade 2 (% of patients) ([6]; human): (6%) | Paronychia Grade 2 (patients) ([6]; human): 2 | Paronychia Grade 3 (patients) ([6]; human): 0 | Paronychia Grade 4 (patients) ([6]; human): 0 | Paronychia Total (any grade) (% of patients) ([6]; human): (18%) | Paronychia Total (any grade) (patients) ([6]; human): 6 | Pruritis Grade 1 (% of patients) ([6]; human): (32%) | Pruritis Grade 1 (patients) ([6]; human): 11 | Pruritis Grade 2 (patients) ([6]; human): 0 | Pruritis Grade 3 (patients) ([6]; human): 0 | Pruritis Grade 4 (patients) ([6]; human): 0 | Pruritis Total (any grade) (% of patients) ([6]; human): (32%) | Pruritis Total (any grade) (patients) ([6]; human): 11 | Rash Grade 1 (% of patients) ([6]; human): (62%) | Rash Grade 1 (patients) ([6]; human): 21 | Rash Grade 2 (% of patients) ([6]; human): (24%) | Rash Grade 2 (patients) ([6]; human): 8 | Rash Grade 3 (% of patients) ([6]; human): (3%) | Rash Grade 3 (patients) ([6]; human): 1 | Rash Grade 4 (patients) ([6]; human): 0 | Rash Total (any grade) (% of patients) ([6]; human): (88%) | Rash Total (any grade) (patients) ([6]; human): 30 | Vomiting Grade 1 (% of patients) ([6]; human): (26%) | Vomiting Grade 1 (patients) ([6]; human): 9 | Vomiting Grade 2 (% of patients) ([6]; human): (3%) | Vomiting Grade 2 (patients) ([6]; human): 1 | Vomiting Grade 3 (% of patients) ([6]; human): (3%) | Vomiting Grade 3 (patients) ([6]; human): 1 | Vomiting Grade 4 (patients) ([6]; human): 0 | Vomiting Total (any grade) (% of patients) ([6]; human): (32%) | Vomiting Total (any grade) (patients) ([6]; human): 11 | patients removed for diarrhea ([6]; human): 2 | patients removed for hyperbilirubinemia ([6]; human): 1 | patients removed for mucositis ([6]; human): 1 | patients removed for possible pneumonitis ([6]; human): 1 | patients removed for transaminitis ([6]; human): 1 | patients removed from the study for toxicity [6]: Six | patients requiring a dose reduction of the pulse dose [6]: three of sixteen | tolerability [6]: well tolerated | patients with evidence of tumor regression in the CNS (brain metastases; 6 patients with untreated brain metastases): 6 | radiographic evidence of new or progressing brain metastases (brain metastases; 16 patients with CNS imaging within three months of coming off study for progression): none | CNS progression on study treatment (brain metastases; all patients): none of the patients; also recorded: No patients | maximum tolerated dose (MTD) ([7]; once weekly, unselected patients with advanced lung cancers (Milton et al.), MTD not reached): ≥ 2000 mg | MTD ([7]; twice-weekly pulse dose (Chia et al.), DLT of rash at higher dose levels): 1000 mg
